Tests used:
[1] = test system: corn; assay: Test B pre/postemergence corn; type: in vivo, Zea mays; conditions: Preemergence; for Plant response rating, Corn: Rate 125 g/ha
Excerpt: (§1) Seeds of bedstraw (Galium aparine), blackgrass (Alopecurus myosuroides), surinam grass (Brachiaria decumbens), cocklebur (Xanthium strumarium), corn (Zea mays), crabgrass (Digitaria sanguinalis), giant foxtail (Setaria faberii), morningglory (Ipomoea hederacea), pigweed (Amaranthus retroflexus), rape (Brassica napus), soybean (Glycine max), sugar beet (Beta vulgaris), velvetleaf (Abutilon theophrasti), wheat (Triticum aestivum), wild oat (Avena fatua) and purple nutsedge (Cyperus rotundus) tubers were planted and treated preemnergence with test chemicals formulated in a non-phytotoxic solvent mixture which included a surfactant.
(§2) At the same time, these crop and weed species were also treated with postemergence applications of test chemicals formulated in the same manner. Plants ranged in height from 2 to 18 cm (1- to 4-leaf stage) for postemergence treatments. Plant species in the flood test consisted of rice (Oryza sativa), smallflower flatsedge (Cyperus difformis), duck salad (Heteranthera limosa) and bamyardgrass (Echinochloa crus-galli) grown to the 2-leaf stage for testing. Treated plants and controls were maintained in a greenhouse for twelve to sixteen days, after which all species were compared to controls and visually evaluated. Plant response ratings, summarized in Table B, are based on a scale of 0 to 10 where 0 is no effect and 10 is complete control. A dash (−) response means no test result.

[2] = test system: rape; assay: Test B pre/postemergence rape; type: in vivo, Brassica napus; conditions: Preemergence; for Plant response rating, Rape: Rate 125 g/ha
Excerpt: as §1, §2

[3] = test system: sugar beet; assay: Test B pre/postemergence sugar beet; type: in vivo, Beta vulgaris; conditions: Preemergence; for Plant response rating, Sugarbeets: Rate 125 g/ha
Excerpt: as §1, §2

[4] = test system: velvetleaf; assay: Test B pre/postemergence velvetleaf; type: in vivo, Abutilon theophrasti; conditions: Preemergence; for Plant response rating, Velvetleaf: Rate 125 g/ha
Excerpt: as §1, §2

[5] = test system: blackgrass; assay: Test B pre/postemergence blackgrass; type: in vivo, Alopecurus myosuroides; conditions: Preemergence
Excerpt: as §1, §2

[6] = test system: wheat; assay: Test B pre/postemergence wheat; type: in vivo, Triticum aestivum; conditions: Preemergence; for Plant response rating, Wheat: Rate 125 g/ha
Excerpt: as §1, §2

[7] = test system: surinam grass; assay: Test B pre/postemergence surinam grass; type: in vivo, Brachiaria decumbens; conditions: Preemergence
Excerpt: as §1, §2

[8] = test system: cocklebur; assay: Test B pre/postemergence cocklebur; type: in vivo, Xanthium strumarium; conditions: Preemergence
Excerpt: as §1, §2

[9] = test system: wild oat; assay: Test B pre/postemergence wild oat; type: in vivo, Avena fatua; conditions: Preemergence; for Plant response rating, Wild oats: Rate 125 g/ha
Excerpt: as §1, §2

[10] = test system: morningglory; assay: Test B pre/postemergence morningglory; type: in vivo, Ipomoea hederacea; conditions: Preemergence; for Plant response rating, Morningglory: Rate 125 g/ha
Excerpt: as §1, §2

[11] = test system: soybean; assay: Test B pre/postemergence soybean; type: in vivo, Glycine max; conditions: Preemergence; for Plant response rating, Soybean: Rate 125 g/ha
Excerpt: as §1, §2

[12] = test system: giant foxtail; assay: Test B pre/postemergence giant foxtail; type: in vivo, Setaria faberii; conditions: Preemergence; for Plant response rating, Giant foxtail: Rate 125 g/ha
Excerpt: as §1, §2

[13] = test system: crabgrass; assay: Test B pre/postemergence crabgrass; type: in vivo, Digitaria sanguinalis; conditions: Preemergence; for Plant response rating, Crabgrass: Rate 125 g/ha
Excerpt: as §1, §2

[14] = test system: bedstraw; assay: Test B pre/postemergence bedstraw; type: in vivo, Galium aparine; conditions: Preemergence
Excerpt: as §1, §2

[15] = test system: pigweed; assay: Test B pre/postemergence pigweed; type: in vivo, Amaranthus retroflexus; conditions: Preemergence; for Plant response rating, Redroot pigweed: Rate 125 g/ha
Excerpt: as §1, §2

[16] = test system: purple nutsedge; assay: Test B pre/postemergence purple nutsedge; type: in vivo, Cyperus rotundus; conditions: Preemergence; for Plant response rating, Nutsedge: Rate 125 g/ha
Excerpt: as §1, §2

[17] = Rate 62 g/ha, scale of 0 to 10 where 0 is no effect and 10 is complete control
[18] = scale of 0 to 10 where 0 is no effect and 10 is complete control
[19] = Rate 250 g/ha, scale 0 (no effect) to 10 (complete control)
[20] = Rate 125 g/ha, scale of 0 to 10 where 0 is no effect and 10 is complete control
[21] = Rate 500 g/ha, scale of 0 to 10 where 0 is no effect and 10 is complete control
[22] = Rate 500 g/ha, scale 0 to 10 (0 no effect, 10 complete control)

## CC(C)N(C(=O)n1oc(=O)n(C(CF)CCl)c1=O)c1ccc(F)cc1 (racemic) [Compound 707]
[1]; [17]
  Corn plant response rating: 0
[1]; [18]
  Plant response rating, Corn: 0
[1]; [19]
  Corn plant response rating: 2
[2]; [17]
  Rape plant response rating: 8
[2]; [18]
  Plant response rating, Rape: 8
[2]; [19]
  Rape plant response rating: 10
[3]; [17]
  Sugarbeets plant response rating: 6
[3]; [18]
  Plant response rating, Sugarbeets: 6
[3]; [19]
  Sugarbeets plant response rating: 8
[4]; [17]
  Velvetleaf plant response rating: 3
[4]; [18]
  Plant response rating, Velvetleaf: 5
[4]; [19]
  Velvetleaf plant response rating: 5
[5]; [17]
  Blackgrass plant response rating: 9
[5]; [20]
  Plant response rating, Blackgrass: 10
[5]; [19]
  Blackgrass plant response rating: 10
[5]; [21]
  Plant response rating, Blackgrass: 10
[6]; [17]
  Wheat plant response rating: 2
[6]; [18]
  Plant response rating, Wheat: 2
[6]; [19]
  Wheat plant response rating: 2
[7]; [17]
  B. signalgrass plant response rating: 6
[7]; [20]
  Plant response rating, B. signalgrass: 7
[7]; [19]
  B. signalgrass plant response rating: 9
[7]; [21]
  Plant response rating, B. signalgrass: 10
[8]; [17]
  Cocklebur plant response rating: 0
[8]; [20]
  Plant response rating, Cocklebur: 0
[8]; [19]
  Cocklebur plant response rating: 0
[8]; [21]
  Plant response rating, Cocklebur: 0
[9]; [17]
  Wild oats plant response rating: 8
[9]; [18]
  Plant response rating, Wild oats: 8
[9]; [19]
  Wild oats plant response rating: 9
[10]; [17]
  Morningglory plant response rating: 3
[10]; [18]
  Plant response rating, Morningglory: 3
[10]; [19]
  Morningglory plant response rating: 4
[11]; [17]
  Soybean plant response rating: 0
[11]; [18]
  Plant response rating, Soybean: 0
[11]; [19]
  Soybean plant response rating: 0
[12]; [17]
  Giant foxtail plant response rating: 6
[12]; [18]
  Plant response rating, Giant foxtail: 10
[12]; [19]
  Giant foxtail plant response rating: 10
[13]; [17]
  Crabgrass plant response rating: 5
[13]; [18]
  Plant response rating, Crabgrass: 9
[13]; [19]
  Crabgrass plant response rating: 9
[14]; [17]
  Bedstraw plant response rating: 7
[14]; [20]
  Plant response rating, Bedstraw: 7
[14]; [19]
  Bedstraw plant response rating: 10
[14]; [21]
  Plant response rating, Bedstraw: 10
[15]; [18]
  Plant response rating, Redroot pigweed: 10
[15]; [19]
  Redroot pigweed plant response rating: 10
[16]; [17]
  Nutsedge plant response rating: 0
[16]; [18]
  Plant response rating, Nutsedge: 0
[16]; [19]
  Nutsedge plant response rating: 0

## CC(C)N(C(=O)n1oc(=O)n(C(C)C2=NOCC2)c1=O)c1ccccc1 (racemic) [Compound 729]
[1]; [17]
  Corn plant response rating: 0
[1]; [18]
  Plant response rating, Corn: 0
[1]; [19]
  Corn plant response rating: 6
[1]; [22]
  Corn plant response rating: 9
[2]; [17]
  Rape plant response rating: 0
[2]; [18]
  Plant response rating, Rape: 2
[2]; [19]
  Rape plant response rating: 3
[2]; [22]
  Rape plant response rating: 10
[3]; [17]
  Sugarbeets plant response rating: 0
[3]; [18]
  Plant response rating, Sugarbeets: 0
[3]; [19]
  Sugarbeets plant response rating: 0
[3]; [22]
  Sugarbeets plant response rating: 7
[4]; [17]
  Velvetleaf plant response rating: 0
[4]; [18]
  Plant response rating, Velvetleaf: 2
[4]; [19]
  Velvetleaf plant response rating: 4
[4]; [22]
  Velvetleaf plant response rating: 8
[5]; [17]
  Blackgrass plant response rating: 6
[5]; [20]
  Plant response rating, Blackgrass: 10
[5]; [19]
  Blackgrass plant response rating: 10
[5]; [22]
  Blackgrass plant response rating: 10
[6]; [17]
  Wheat plant response rating: 0
[6]; [18]
  Plant response rating, Wheat: 0
[6]; [19]
  Wheat plant response rating: 4
[6]; [22]
  Wheat plant response rating: 6
[7]; [17]
  B. signalgrass plant response rating: 5
[7]; [20]
  Plant response rating, B. signalgrass: 10
[7]; [19]
  B. signalgrass plant response rating: 10
[7]; [22]
  B. signalgrass plant response rating: 10
[8]; [17]
  Cocklebur plant response rating: 0
[8]; [20]
  Plant response rating, Cocklebur: 0
[8]; [19]
  Cocklebur plant response rating: 0
[8]; [22]
  Cocklebur plant response rating: 0
[9]; [17]
  Wild oats plant response rating: 2
[9]; [18]
  Plant response rating, Wild oats: 7
[9]; [19]
  Wild oats plant response rating: 10
[9]; [22]
  Wild oats plant response rating: 10
[10]; [17]
  Morningglory plant response rating: 0
[10]; [18]
  Plant response rating, Morningglory: 0
[10]; [19]
  Morningglory plant response rating: 2
[10]; [22]
  Morningglory plant response rating: 8
[11]; [17]
  Soybean plant response rating: 0
[11]; [18]
  Plant response rating, Soybean: 0
[11]; [19]
  Soybean plant response rating: 2
[11]; [22]
  Soybean plant response rating: 2
[12]; [17]
  Giant foxtail plant response rating: 9
[12]; [18]
  Plant response rating, Giant foxtail: 9
[12]; [19]
  Giant foxtail plant response rating: 9
[12]; [22]
  Giant foxtail plant response rating: 10
[13]; [17]
  Crabgrass plant response rating: 7
[13]; [18]
  Plant response rating, Crabgrass: 9
[13]; [19]
  Crabgrass plant response rating: 9
[13]; [22]
  Crabgrass plant response rating: 10
[14]; [17]
  Bedstraw plant response rating: 0
[14]; [20]
  Plant response rating, Bedstraw: 0
[14]; [19]
  Bedstraw plant response rating: 8
[14]; [22]
  Bedstraw plant response rating: 8
[15]; [17]
  Redroot pigweed plant response rating: 7
[15]; [18]
  Plant response rating, Redroot pigweed: 9
[15]; [19]
  Redroot pigweed plant response rating: 10
[15]; [22]
  Redroot pigweed plant response rating: 10
[16]; [17]
  Nutsedge plant response rating: 0
[16]; [18]
  Plant response rating, Nutsedge: 0
[16]; [22]
  Nutsedge plant response rating: 2

Reference: patent publication US6737383B1, “Herbicidal oxadiazolidines” (priority 1999, dated 2004)
